# According to paper PMC9000336, “Development of Bicyclo[3.1.0]hexane-Based A3 Receptor Ligands: Closing the Gaps in the Structure–Affinity Relationships” (Molecules, 2022):
# Read-outs that look alike come from different tables or passages of the source.
# Columns and labels:
# [1] = biological target: T1, human adenosine A3 receptor (Homo sapiens, UniProt P0DMS8); experiment: Radioligand displacement assay, human adenosine A3 receptor ([3H]PSB11, CHOhA3R membranes); type: binding; settings: for inhibition at 10 µM: test compound 10 µM; for Ki: [3H]PSB11, read-out: A3 Ki ± SEM
# T1 construct: expressed in transfected cells; host or cells: CHO cells (CHOhA3R), gift of Dr. K.-N. Klotz (University of Würzburg); membrane preparation
# T1 sequence (P0DMS8 1-318): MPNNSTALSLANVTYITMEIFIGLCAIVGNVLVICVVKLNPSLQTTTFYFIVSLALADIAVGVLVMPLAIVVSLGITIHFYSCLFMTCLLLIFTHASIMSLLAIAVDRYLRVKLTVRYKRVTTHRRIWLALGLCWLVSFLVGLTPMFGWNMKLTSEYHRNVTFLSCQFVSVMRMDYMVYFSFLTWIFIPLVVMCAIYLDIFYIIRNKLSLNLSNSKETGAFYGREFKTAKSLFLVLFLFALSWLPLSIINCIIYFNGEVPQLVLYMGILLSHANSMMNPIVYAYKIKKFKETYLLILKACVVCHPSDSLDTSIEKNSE
# Procedure: Chinese hamster ovary (CHO) cells stably expressing the human adenosine A1 receptor (CHOhA1R) were kindly provided by Prof. S. J. Hill and CHO cells stably expressing the human adenosine A3 receptor (CHOhA3R) were a gift from Dr. K.-N. Klotz (University of Würzburg, Germany). Chinese hamster ovary cells stably expressing the human A1-receptor (CHOhA1R) or the human A3-receptor (CHOhA3R) were grown in Dulbecco’s Modified Eagle’s Medium (DMEM) and Ham’s F12 medium (1:1) supplemented with 10% (v/v) newborn calf serum, 50 µg/mL streptomycin, 50 IU/mL penicillin, and 200 µg/mL G418 at 37 °C and 5% CO2. […] All cells were grown to 80–90% confluency and detached from plates by scraping them into 5 mL phosphate-buffered saline. Detached cells were collected and centrifuged at 200 g for 5 min. Pellets derived from 100 15 cm Ø plates were pooled and resuspended in 70 mL of ice-cold 50 mM tris(hydroxymethyl)aminomethane (Tris)-HCl buffer, pH 7.4. A Heidolph Diax 900 homogenizer was used to homogenize the cell suspension. Membranes and the cytosolic fraction were separated by centrifugation at 100,000 g in a Beckman Optima LE-80 K ultracentrifuge (Beckman Coulter, Fullerton, CA, USA) at 4 °C for 20 min. The pellet was resuspended in 35 mL of the Tris-HCl buffer, and the homogenization and centrifugation steps were repeated. Tris-HCl buffer (25 mL) was used to resuspend the pellet, and adenosine deaminase (ADA) was added (0.8 U/mL) to break down endogenous adenosine. Membranes were stored in 250 µL and 500 µL aliquots at −80 °C. Total protein concentrations were measured using the bicinchoninic acid (BCA) method.
# A3 Receptor: Membrane aliquots containing 15 µg (CHOhA3R) total protein were incubated in a total volume of 100 µL assay buffer (50 mM Tris-HCl, pH 8.0, supplemented with 10 mM MgCl2, 1 mM EDTA and 0.01% (w/v) CHAPS) at 25 °C for 2 h. Radioligand displacement experiments were performed using six concentrations of competing ligand in the presence of 10 nM [^3H]8-ethyl-4-methyl-2-phenyl-(8R)-4,5,7,8-tetrahydro-1H-imidazo[2.1-i]purin-5-one ([^3H]PSB11). […] Nonspecific binding was determined in the presence of 100 µM NECA. Incubations were terminated by rapid vacuum filtration to separate the bound and free radioligand through prewetted 96-well GF/B filter plates using a PerkinElmer Filtermate-harvester (Perkin Elmer, Groningen, The Netherlands). Filters were subsequently washed 12 times with ice-cold 50 mM Tris-HCl supplemented with 10 mM MgCl2, and 1 mM EDTA, pH 8.0 for CHOhA3R.
# (§1) The plates of all four adenosine receptor assays were dried at 55 °C after which MicroscintTM-20-cocktail was added (Perkin Elmer, Groningen, The Netherlands).
# (§2) All experimental data were analyzed using the non-linear regression curve fitting program GraphPad Prism 7.0 (GraphPad Software Inc., San Diego, CA, USA). IC50 values obtained from competition displacement binding data were converted into Ki values using the Cheng–Prusoff equation.
# [2] = biological target: T2, human adenosine A2A receptor (Homo sapiens, UniProt P29274); experiment: Radioligand displacement assay, human adenosine A2A receptor ([3H]ZM241385, HEK293hA2AR membranes); type: binding; settings: for A2A displacement at 10 µM: test compound 10 µM; for A2A displacement at 10 µM / Ki: n = 3
# T2 construct: expressed in transfected cells; host or cells: HEK293 cells (HEK293hA2AR), from Dr. J. Wang (Biogen/IDEC); membrane preparation
# Procedure: Human embryonic kidney 293 cells stably expressing the human adenosine A2A receptor (HEK293hA2AR) were kindly provided by Dr. J. Wang (Biogen/IDEC, Cambridge, MA, USA), CHO-spap cells stably expressing the wild-type (WT) hA2B receptor (CHO-spap-hA2BR) were kindly provided by S. J. Dowell (GlaxoSmithKline, Brentfort, UK).
# All cells were grown to 80–90% confluency and detached from plates by scraping them into 5 mL phosphate-buffered saline. Detached cells were collected and centrifuged at 200 g for 5 min. Pellets derived from 100 15 cm Ø plates were pooled and resuspended in 70 mL of ice-cold 50 mM tris(hydroxymethyl)aminomethane (Tris)-HCl buffer, pH 7.4. A Heidolph Diax 900 homogenizer was used to homogenize the cell suspension. Membranes and the cytosolic fraction were separated by centrifugation at 100,000 g in a Beckman Optima LE-80 K ultracentrifuge (Beckman Coulter, Fullerton, CA, USA) at 4 °C for 20 min. The pellet was resuspended in 35 mL of the Tris-HCl buffer, and the homogenization and centrifugation steps were repeated. Tris-HCl buffer (25 mL) was used to resuspend the pellet, and adenosine deaminase (ADA) was added (0.8 U/mL) to break down endogenous adenosine. Membranes were stored in 250 µL and 500 µL aliquots at −80 °C. Total protein concentrations were measured using the bicinchoninic acid (BCA) method.
# Nonspecific binding was determined in the presence of 100 µM adenosine-5-N-ethyluronamide (NECA). Incubations were terminated by rapid vacuum filtration to separate the bound and free radioligand through prewetted 96-well GF/B filter plates using a PerkinElmer Filtermate-harvester (Perkin Elmer, Groningen, The Netherlands). Filters were subsequently washed 12 times with ice-cold 50 mM Tris-HCl, pH 7.4.
# as §1, §2
# [3] = [3H]ZM241385, read-out: A2A Ki ± SEM
# T2 sequence (P29274 whole entry): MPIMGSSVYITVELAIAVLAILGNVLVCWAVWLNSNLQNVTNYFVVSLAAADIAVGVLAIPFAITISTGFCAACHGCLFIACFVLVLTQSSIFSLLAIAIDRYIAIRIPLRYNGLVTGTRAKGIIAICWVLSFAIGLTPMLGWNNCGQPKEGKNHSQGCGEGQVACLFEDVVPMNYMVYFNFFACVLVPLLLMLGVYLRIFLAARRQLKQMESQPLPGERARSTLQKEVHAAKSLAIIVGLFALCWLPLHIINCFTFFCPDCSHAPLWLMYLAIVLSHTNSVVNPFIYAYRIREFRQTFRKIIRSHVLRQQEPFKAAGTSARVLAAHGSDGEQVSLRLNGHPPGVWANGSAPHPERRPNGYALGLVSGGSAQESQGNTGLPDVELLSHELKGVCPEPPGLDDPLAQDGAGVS
SMILES,inhibition at 10 µM ([1]; n = 3) [%],A2A displacement at 10 µM [2] [%],Ki ([1]; n = 3) [µM],further results
"Nc1cc(Cl)c2ncn([C@H]3[C@H](O)[C@H](O)[C@]4(CO)C[C@H]34)c2n1 [Compound 11, (1R,2R,3S,4R,5S)-4-(5-Amino-7-chloro-3H-imidazo[4,5-b]pyridin-3-yl)-1-(hydroxymethyl)bicyclo[3.1.0]hexane-2,3-diol]",4,4,–,–
"OC[C@@]12C[C@@H]1[C@@H](n1cnc3c(Cl)cc(Cl)nc31)[C@H](O)[C@@H]2O [Compound 12, (1R,2R,3S,4R,5S)-4-(5,7-Dichloro-3H-imidazo[4,5-b]pyridin-3-yl)-1-(hydroxymethyl)bicyclo[3.1.0]hexane-2,3-diol]",–,–,> 10,"Ki [2, 3]: > 10 µM"
"OC[C@@]12C[C@@H]1[C@@H](n1cnc3c(NCc4ccccc4)cc(Cl)nc31)[C@H](O)[C@@H]2O [Compound 13, (1R,2R,3S,4R,5S)-4-[7-(Benzylamino)-5-chloro-3H-imidazo[4,5-b]pyridin-3-yl]-1-(hydroxymethyl)bicyclo[3.1.0]hexane-2,3-diol]",–,13,0.46 ± 0.02,–
"CSc1cc(NCc2ccccc2)c2ncn([C@H]3[C@H](O)[C@H](O)[C@]4(CO)C[C@H]34)c2n1 [Compound 14, (1R,2R,3S,4R,5S)-4-[7-(Benzylamino)-5-methylthio-3H-imidazo[4,5-b]pyridin-3-yl]-1-(hydroxymethyl)bicyclo[3.1.0]hexane-2,3-diol]",–,4,1.51 ± 0.03,–
"COc1ccc(CNc2cc(Cl)nc3c2ncn3[C@H]2[C@H](O)[C@H](O)[C@]3(CO)C[C@H]23)cc1 [Compound 15, (1R,2R,3S,4R,5S)-4-{5-Chloro-7-[(4-methoxy)benzylamino]-3H-imidazo[4,5-b]pyridin-3-yl}-1-(hydroxymethyl)bicyclo[3.1.0]hexane-2,3-diol]",–,2,0.5 ± 0.01,–
"Nc1cc(Cl)nc2c1ncn2[C@H]1[C@H](O)[C@H](O)[C@]2(CO)C[C@H]12 [Compound 16, (1R,2R,3S,4R,5S)-4-(7-Amino-5-chloro-3H-imidazo[4,5-b]pyridin-3-yl)-1-(hydroxymethyl)bicyclo[3.1.0]hexane-2,3-diol]",–,42,1.6 ± 0.11,–
"CSc1cc(N)c2ncn([C@H]3[C@H](O)[C@H](O)[C@]4(CO)C[C@H]34)c2n1 [Compound 17, (1R,2R,3S,4R,5S)-4-(7-Amino-5-methylthio-3H-imidazo[4,5-b]pyridin-3-yl)-1-(hydroxymethyl)bicyclo[3.1.0]hexane-2,3-diol]",45,3,–,–
"COC(=O)Cc1cn(C[C@@]23C[C@@H]2[C@@H](n2cnc4c(N)nc(SC)nc42)[C@H](O)[C@@H]3O)nn1 [Compound 41, Methyl 2-(1-{[(1R,2R,3S,4R,5S)-4-(6-amino-2-methylthio-9H-purin-9-yl)-2,3-dihydroxybicyclo[3.1.0]hex-1-yl]methyl}-1H-1,2,3-triazol-4-yl)acetate]",–,–,–,"A3 displacement at 1 µM ([1]; footnote a: test compound 1 µM, n = 3): 3% ^a; Ki ([2]; footnote a: tested at 1 µM, read-out: A2A Ki (bound, footnote a)): > 1 µM"

# Now from value to compound, other results behind:
inhibition at 10 µM ([1]; n = 3) [%],A2A displacement at 10 µM [2] [%],Ki ([1]; n = 3) [µM],SMILES,further results
8,9,–,"OC[C@@]12C[C@@H]1[C@@H](n1cnc3c(N(Cc4ccccc4)Cc4ccccc4)ncnc31)[C@H](O)[C@@H]2O [Compound 26, (1R,2R,3S,4R,5S)-4-[6-(Dibenzylamino)-9H-purin-9-yl]-1-(hydroxymethyl)bicyclo[3.1.0]hexane-2,3-diol]",potency at the A3 receptor [1]: not potent
4,–,–,"OC[C@@]12C[C@@H]1[C@@H](n1cnc3c(N(Cc4ccccc4)Cc4ccccc4)nc(Cl)nc31)[C@H](O)[C@@H]2O [Compound 27, (1R,2R,3S,4R,5S)-4-[6-(Dibenzylamino)-2-chloro-9H-purin-9-yl]-1-(hydroxymethyl)bicyclo[3.1.0]hexane-2,3-diol]","potency at the A3 receptor [1]: not potent; Ki [2, 3]: > 10 µM"
–,13,0.38 ± 0.01,"CSc1nc(N(Cc2ccccc2)Cc2ccccc2)c2ncn([C@H]3[C@H](O)[C@H](O)[C@]4(CO)C[C@H]34)c2n1 [Compound 30, (1R,2R,3S,4R,5S)-4-[6-(Dibenzylamino)-2-methylthio-9H-purin-9-yl]-1-(hydroxymethyl)bicyclo[3.1.0]hexane-2,3-diol]",A3R selectivity ([1]; versus other P1 receptor subtypes): high A3R selectivity
26,–,–,"CSc1nc(N(Cc2ccccc2)Cc2ccccc2)c2ncn([C@H]3[C@H](O)[C@H](O)[C@]4(CCl)C[C@H]34)c2n1 [Compound 31, (1S,2R,3S,4R,5S)-4-[6-(Dibenzylamino)-2-methylthio-9H-purin-9-yl]-1-(chloromethyl)bicyclo[3.1.0]hexane-2,3-diol]","potency at the A3 receptor [1]: not potent; Ki [2, 3]: > 10 µM"
–,–,0.96 ± 0.05,"Nc1ncnc2c1ncn2[C@H]1[C@H](O)[C@H](O)[C@]2(CO)C[C@H]12 [Compound 36, (N)-methanocarba adenosine]","Ki [2, 3]: 1.81 ± 0.11 µM; fold lower affinity towards A2A receptor than A3 ([2]; relative to A3 Ki): 2 fold"
37,11,–,"CSc1nc(N)c2ncn([C@H]3[C@H](O)[C@H](O)[C@]4(Cn5cc(CO)nn5)C[C@H]34)c2n1 [Compound 39, (1R,2R,3S,4R,5S)-4-(6-Amino-2-methylthio-9H-purin-9-yl)-1-{[4-(hydroxymethyl)-1H-1,2,3-triazol-1-yl]methyl}bicyclo[3.1.0]hexane-2,3-diol]",–
8,3,–,"COC(=O)c1cn(C[C@@]23C[C@@H]2[C@@H](n2cnc4c(N)nc(SC)nc42)[C@H](O)[C@@H]3O)nn1 [Compound 40, Methyl 1-{[(1R,2R,3S,4R,5S)-4-(6-amino-2-methylthio-9H-purin-9-yl)-2,3-dihydroxybicyclo[3.1.0]hex-1-yl]methyl}-1H-1,2,3-triazole-4-carboxylate]",–
–,29,6.35 ± 0.23,"COC(=O)CCc1cn(C[C@@]23C[C@@H]2[C@@H](n2cnc4c(N)nc(SC)nc42)[C@H](O)[C@@H]3O)nn1 [Compound 42, Methyl 3-(1-{[(1R,2R,3S,4R,5S)-4-(6-amino-2-methylthio-9H-purin-9-yl)-2,3-dihydroxybicyclo[3.1.0]hex-1-yl]methyl}-1H-1,2,3-triazol-4-yl)propanoate]",–
